Experimental data taken from patent publication US9512142B2, “Tricyclic triazolic compounds” (LABORATORIOS DEL DR. ESTEVE S.A., priority 2013, dated 2016).
Read-outs that look alike come from different tables or passages of the source.

Key:
Kinetic solubility = format: physicochemical; conditions: kinetic from dmso stock, buffered aqueous solution at pH=7.4, 10 μL of 10 mM DMSO solution in 1 mL, stirred 4 hours, supernatant by liquid chromatography, read-out: Kin. Solub.
Method: To a buffered aqueous solution at pH=7.4 (1 mL), a 10 mM DMSO solution of the test compound (10 μL) was added and the mixture stirred for 4 hours. After centrifugation, the compound concentration in the supernatant was determined by liquid chromatography by fitting in a calibration curve of the compound.

human sigma 1 receptor = biological target: T1, human sigma 1 receptor (Homo sapiens, UniProt Q99720); test: Human sigma 1 receptor radioligand assay ([3H](+)-pentazocine, transfected HEK-293 membranes); format: binding
T1 construct: expressed in transfected cells; host or cells: HEK-293
T1 sequence (Q99720 whole entry): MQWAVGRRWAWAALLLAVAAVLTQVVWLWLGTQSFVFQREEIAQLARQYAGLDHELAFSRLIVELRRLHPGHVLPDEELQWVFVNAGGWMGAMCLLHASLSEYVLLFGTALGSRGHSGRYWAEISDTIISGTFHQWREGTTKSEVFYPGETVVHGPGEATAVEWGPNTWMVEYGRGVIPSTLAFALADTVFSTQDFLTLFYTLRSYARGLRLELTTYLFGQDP
Method: Human Sigma 1 Receptor Radioligand Assay
The assay was carried out with 7 μg of membrane suspension, 5 nM of [^3H](+)-pentazocine in either absence or presence of either buffer or 10 μM Haloperidol for total and non-specific binding, respectively. Binding buffer contained Tris-HCl 50 mM at pH 8. Plates were incubated at 37° C. for 120 minutes. After the incubation period, the reaction mix was then transferred to MultiScreen HTS, FC plates (Millipore), filtered and plates were washed 3 times with ice-cold 10 mM Tris-HCL (pH7.4). Filters were dried and counted at approximately 40% efficiency in a MicroBeta scintillation counter (Perkin-Elmer) using EcoScint liquid scintillation cocktail.

[1] = buffered aqueous solution, pH 7.4, aqueous buffer
[2] = 5 nM [3H](+)-pentazocine, transfected HEK-293 membranes, 37° C., 120 minutes, read-out: Ki

What does the source list for `Cl.Fc1ccccc1-c1nnn2c1CO[C@H]1CN(C[C@@H]3CCOC3)C[C@@H]12` [Example 17, (5aS,8aS)-3-(2-fluorophenyl)-7-(((S)-tetrahydrofuran-3-yl)methyl)-4,5a,6,7,8,8a-hexahydropyrrolo[3,4-b][1,2,3]triazolo[1,5-d][1,4]oxazine hydrochloride]?
solubility at 4 h (Kinetic solubility; [1]): > 10 µM; Ki (human sigma 1 receptor; [2]): 49.2 nM

What does the source list for `Cl.Fc1ccc(-c2nnn3c2CO[C@H]2CN(C4CCOCC4)C[C@@H]23)cc1` [Example 4, (5aS,8aS)-3-(4-fluorophenyl)-7-(tetrahydro-2H-pyran-4-yl)-4,5a,6,7,8,8a-hexahydropyrrolo[3,4-b][1,2,3]triazolo[1,5-d][1,4]oxazine hydrochloride]?
solubility at 4 h (Kinetic solubility; aqueous buffer): > 10 µM; Ki (human sigma 1 receptor; [2]): 23 nM

Which solubility at 4 h (Kinetic solubility; [1]) does the source give for `Cl.c1ccc(CN2C[C@@H]3OCc4c(-c5ccccn5)nnn4[C@H]3C2)cc1` [Example 33, (5aS,8aS)-7-benzyl-3-(pyridin-2-yl)-4,5a,6,7,8,8a-hexahydropyrrolo[3,4-b][1,2,3]triazolo[1,5-d][1,4]oxazine hydrochloride] here?
Its solubility at 4 h is over 10 µM.

And the Ki (human sigma 1 receptor; [2])?
Its Ki is 225 nM.

With `COc1ccc(CN2C[C@@H]3OCc4c(-c5ccc(F)cc5F)nnn4[C@H]3C2)cn1.Cl` [Example 52, (5aS,8aS)-3-(2,4-difluorophenyl)-7-((6-methoxypyridin-3-yl)methyl)-4,5a,6,7,8,8a-hexahydropyrrolo[3,4-b][1,2,3]triazolo[1,5-d][1,4]oxazine hydrochloride] as the molecule, how does the solubility at 4 h (Kinetic solubility; [1]) read?
Its solubility at 4 h is over 10 µM.

And the Ki (human sigma 1 receptor; [2])?
The Ki was 272 nM.

With `Cl.Fc1ccccc1-c1nnn2c1CO[C@@H]1CN(C[C@H]3CCOC3)C[C@H]12` [Example 18, (5aR,8aR)-3-(2-fluorophenyl)-7-(((R)-tetrahydrofuran-3-yl)methyl)-4,5a,6,7,8,8a-hexahydropyrrolo[3,4-b][1,2,3]triazolo[1,5-d][1,4]oxazine hydrochloride] as the molecule, how does the solubility at 4 h (Kinetic solubility; [1]) read?
The solubility at 4 h was over 10 µM.

What about the Ki (human sigma 1 receptor; [2]) of the same molecule?
Its Ki is 171 nM.

Which results are given for `Cl.Clc1ccc(-c2nnn3c2CO[C@@H]2CN(C[C@@H]4CCOC4)C[C@H]23)c(Cl)c1` [Example 59, (5aR,8aR)-3-(2,4-dichlorophenyl)-7-(((S)-tetrahydrofuran-3-yl)methyl)-4,5a,6,7,8,8a-hexahydropyrrolo[3,4-b][1,2,3]triazolo[1,5-d][1,4]oxazine hydrochloride]?
solubility at 4 h (Kinetic solubility; [1]): > 10 µM; Ki (human sigma 1 receptor; [2]): 181 nM

Which solubility at 4 h (Kinetic solubility; [1]) does the source give for `Cl.Clc1ccc(-c2nnn3c2CO[C@H]2CN(C[C@H]4CCOC4)C[C@@H]23)c(Cl)c1` [Example 58, (5aS,8aS)-3-(2,4-dichlorophenyl)-7-(((R)-tetrahydrofuran-3-yl)methyl)-4,5a,6,7,8,8a-hexahydropyrrolo[3,4-b][1,2,3]triazolo[1,5-d][1,4]oxazine hydrochloride] here?
Its solubility at 4 h is over 10 µM.

And the Ki (human sigma 1 receptor; [2])?
Its Ki is 25.4 nM.

Which solubility at 4 h (Kinetic solubility; [1]) does the source give for `Cc1occc1CN1C[C@@H]2OCc3c(-c4ccc(F)cc4F)nnn3[C@H]2C1.Cl` [Example 61, (5aS,8aS)-3-(2,4-difluorophenyl)-7-((2-methylfuran-3-yl)methyl)-4,5a,6,7,8,8a-hexahydropyrrolo[3,4-b][1,2,3]triazolo[1,5-d][1,4]oxazine hydrochloride] here?
Its solubility at 4 h is over 10 µM.

What about the Ki (human sigma 1 receptor; [2]) of the same molecule?
Its Ki is 73.7 nM.

With `Cl.Fc1ccc(-c2nnn3c2CO[C@H]2CN(C4CCOCC4)C[C@@H]23)c(F)c1` [Example 27, (5aS,8aS)-3-(2,4-difluorophenyl)-7-(tetrahydro-2H-pyran-4-yl)-4,5a,6,7,8,8a-hexahydropyrrolo[3,4-b][1,2,3]triazolo[1,5-d][1,4]oxazine hydrochloride] as the molecule, how does the solubility at 4 h (Kinetic solubility; [1]) read?
Its solubility at 4 h is over 10 µM.

And the Ki (human sigma 1 receptor; [2])?
The Ki was 20.4 nM.

With `Cl.Fc1ccccc1-c1nnn2c1CO[C@H]1CN(C[C@H]3CCOC3)C[C@@H]12` [Example 15, (5aS,8aS)-3-(2-fluorophenyl)-7-(((R)-tetrahydrofuran-3-yl)methyl)-4,5a,6,7,8,8a-hexahydropyrrolo[3,4-b][1,2,3]triazolo[1,5-d][1,4]oxazine hydrochloride] as the molecule, how does the solubility at 4 h (Kinetic solubility; [1]) read?
The solubility at 4 h was over 10 µM.

And the Ki (human sigma 1 receptor; [2])?
Its Ki is 29.7 nM.

With `Cl.Clc1ccc(-c2nnn3c2CO[C@H]2CN(CCC4CCOCC4)C[C@@H]23)c(Cl)c1` [Example 53, (5aS,8aS)-3-(2,4-dichlorophenyl)-7-(2-(tetrahydro-2H-pyran-4-yl)ethyl)-4,5a,6,7,8,8a-hexahydropyrrolo[3,4-b][1,2,3]triazolo[1,5-d][1,4]oxazine hydrochloride] as the molecule, how does the solubility at 4 h (Kinetic solubility; [1]) read?
Its solubility at 4 h is over 10 µM.

What about the Ki (human sigma 1 receptor; [2]) of the same molecule?
The Ki was 16.8 nM.

Which results are given for `COc1ccc(CN2C[C@@H]3OCc4c(-c5ccc(F)cc5Cl)nnn4[C@H]3C2)cn1.Cl` [Example 50, (5aS,8aS)-3-(2-chloro-4-fluorophenyl)-7-((6-methoxypyridin-3-yl)methyl)-4,5a,6,7,8,8a-hexahydropyrrolo[3,4-b][1,2,3]triazolo[1,5-d][1,4]oxazine hydrochloride]?
solubility at 4 h (Kinetic solubility; [1]): > 10 µM; Ki (human sigma 1 receptor; [2]): 99.9 nM

For `Cl.Fc1ccc(-c2nnn3c2CO[C@@H]2CN(CCC4CCOCC4)C[C@H]23)c(Cl)c1` [Example 47, (5aR,8aR)-3-(2-chloro-4-fluorophenyl)-7-(2-(tetrahydro-2H-pyran-4-yl)ethyl)-4,5a,6,7,8,8a-hexahydropyrrolo[3,4-b][1,2,3]triazolo[1,5-d][1,4]oxazine hydrochloride], which solubility at 4 h (Kinetic solubility; [1]) is on record?
The solubility at 4 h was over 10 µM.

What about the Ki (human sigma 1 receptor; [2]) of the same molecule?
Its Ki is 26.8 nM.

Which solubility at 4 h (Kinetic solubility; aqueous buffer) does the source give for `Cl.Fc1ccc(CN2C[C@@H]3[C@@H](C2)OCc2c(-c4ccccc4F)nnn23)cn1` [Example 11, (5aR,8aR)-3-(2-fluorophenyl)-7-((6-fluoropyridin-3-yl)methyl)-4,5a,6,7,8,8a-hexahydropyrrolo[3,4-b][1,2,3]triazolo[1,5-d][1,4]oxazine hydrochloride] here?
Its solubility at 4 h is over 10 µM.

And the Ki (human sigma 1 receptor; [2])?
Its Ki is 241 nM.

What does the source list for `Cl.c1ccc(CN2C[C@@H]3[C@@H](C2)OCc2c(-c4ccccn4)nnn23)cc1` [Example 32, (5aR,8aR)-7-benzyl-3-(pyridin-2-yl)-4,5a,6,7,8,8a-hexahydropyrrolo[3,4-b][1,2,3]triazolo[1,5-d][1,4]oxazine hydrochloride]?
solubility at 4 h (Kinetic solubility; [1]): > 10 µM; Ki (human sigma 1 receptor; [2]): 37 nM

Which results are given for `Cl.Clc1ccc(-c2nnn3c2CO[C@H]2CN(C4CCOCC4)C[C@@H]23)c(Cl)c1` [Example 46, (5aS,8aS)-3-(2,4-dichlorophenyl)-7-(tetrahydro-2H-pyran-4-yl)-4,5a,6,7,8,8a-hexahydropyrrolo[3,4-b][1,2,3]triazolo[1,5-d][1,4]oxazine hydrochloride]?
solubility at 4 h (Kinetic solubility; [1]): > 10 µM; Ki (human sigma 1 receptor; [2]): 15.1 nM

Which solubility at 4 h (Kinetic solubility; aqueous buffer) does the source give for `Cl.c1ccc(-c2nnn3c2CO[C@H]2CN(C4CCOCC4)C[C@@H]23)nc1` [Example 31, (5aS,8aS)-3-(pyridin-2-yl)-7-(tetrahydro-2H-pyran-4-yl)-4,5a,6,7,8,8a-hexahydropyrrolo[3,4-b][1,2,3]triazolo[1,5-d][1,4]oxazine hydrochloride] here?
Its solubility at 4 h is over 10 µM.

What about the Ki (human sigma 1 receptor) of the same molecule?
Its Ki is 241 nM.

With `Cc1cc(CN2C[C@@H]3[C@@H](C2)OCc2c(-c4ccc(F)cc4F)nnn23)c(C)o1.Cl` [Example 23, (5aR,8aR)-3-(2,4-difluorophenyl)-7-((2,5-dimethylfuran-3-yl)methyl)-4,5a,6,7,8,8a-hexahydropyrrolo[3,4-b][1,2,3]triazolo[1,5-d][1,4]oxazine hydrochloride] as the molecule, how does the solubility at 4 h (Kinetic solubility; [1]) read?
The solubility at 4 h was over 10 µM.

What about the Ki (human sigma 1 receptor; [2]) of the same molecule?
The Ki was 41.9 nM.

Which results are given for `COc1ccc(CN2C[C@@H]3[C@@H](C2)OCc2c(-c4ccc(F)cc4Cl)nnn23)cn1.Cl` [Example 49, (5aR,8aR)-3-(2-chloro-4-fluorophenyl)-7-((6-methoxypyridin-3-yl)methyl)-4,5a,6,7,8,8a-hexahydropyrrolo[3,4-b][1,2,3]triazolo[1,5-d][1,4]oxazine hydrochloride]?
solubility at 4 h (Kinetic solubility; [1]): > 10 µM; Ki (human sigma 1 receptor; [2]): 112 nM

For `Cl.Fc1ccc(-c2nnn3c2CO[C@@H]2CN(Cc4ccoc4)C[C@H]23)cc1` (racemic) [Example 21, (5aRS,8aRS)-3-(4-fluorophenyl)-7-(furan-3-ylmethyl)-4,5a,6,7,8,8a-hexahydropyrrolo[3,4-b][1,2,3]triazolo[1,5-d][1,4]oxazine hydrochloride], which solubility at 4 h (Kinetic solubility; aqueous buffer) is on record?
The solubility at 4 h was over 10 µM.

What about the Ki (human sigma 1 receptor; [2]) of the same molecule?
Its Ki is 16.6 nM.

With `COc1ccc(CN2C[C@@H]3[C@@H](C2)OCc2c(-c4ccc(F)cc4F)nnn23)cn1.Cl` [Example 51, (5aR,8aR)-3-(2,4-difluorophenyl)-7-((6-methoxypyridin-3-yl)methyl)-4,5a,6,7,8,8a-hexahydropyrrolo[3,4-b][1,2,3]triazolo[1,5-d][1,4]oxazine hydrochloride] as the molecule, how does the solubility at 4 h (Kinetic solubility; [1]) read?
The solubility at 4 h was over 10 µM.

And the Ki (human sigma 1 receptor; [2])?
The Ki was 234 nM.

With `Cl.FC(F)(F)c1ccc(-c2nnn3c2CO[C@H]2CN(C4CCOCC4)C[C@@H]23)c(Cl)c1` [Example 55, (5aS,8aS)-3-(2-chloro-4-(trifluoromethyl)phenyl)-7-(tetrahydro-2H-pyran-4-yl)-4,5a,6,7,8,8a-hexahydropyrrolo[3,4-b][1,2,3]triazolo[1,5-d][1,4]oxazine hydrochloride] as the molecule, how does the solubility at 4 h (Kinetic solubility; aqueous buffer) read?
Its solubility at 4 h is over 10 µM.

What about the Ki (human sigma 1 receptor; [2]) of the same molecule?
Its Ki is 23.3 nM.

With `Cl.Clc1ccc(-c2nnn3c2CO[C@@H]2CN(C[C@H]4CCOC4)C[C@H]23)c(Cl)c1` [Example 57, (5aR,8aR)-3-(2,4-dichlorophenyl)-7-(((R)-tetrahydrofuran-3-yl)methyl)-4,5a,6,7,8,8a-hexahydropyrrolo[3,4-b][1,2,3]triazolo[1,5-d][1,4]oxazine hydrochloride] as the molecule, how does the solubility at 4 h (Kinetic solubility; [1]) read?
Its solubility at 4 h is over 10 µM.

And the Ki (human sigma 1 receptor; [2])?
The Ki was 195 nM.
